# Test results published in patent publication US10052330B2, “Substituted pyrido[3,4-b]pyrazines as Syk inhibitors” (HUTCHISON MEDIPHARMA LIMITED, priority 2011, dated 2018).
# Like-named read-outs stand apart in the source and are kept apart here.
# Key:
# RBL-2H3 cells = test: IgE-induced Beta-hexosaminidase secretion in RBL-2H3 cells; assay type: cell-based; conditions: Rattus norvegicus
# Syk kinase = Syk kinase (Homo sapiens, UniProt P43405); test: Syk kinase enzymatic assay (Kit-Tyr 2 Peptide); assay type: biochemical
# [1] = RBL-2H3, RBL-2H3 cells sensitized with SPE-7, stimulated with DNP-BSA, upper bound of each range is 'less than', read-out: IC50, IgE-induced Beta-hexosaminidase secretion
# [2] = 8 concentrations, 1 μM down to 0.0003 μM, upper bound of each range is 'less than', read-out: IC50: Enzymatic Activity (Syk kinase)
IC50 (Syk kinase; [2]),SMILES,IC50 (RBL-2H3 cells; [1]),"IC50 (RBL-2H3 cells; RBL-2H3, read-out: IC50, IgE-induced Beta-hexosaminidase secretion)",IC50 (Syk kinase)
100 to 1000 nM,CN1CCN(c2ccc(-c3cc4nccnc4c(NC[C@@H]4CNCCO4)n3)cn2)CC1 [Compound 259],100 to 1000 nM,–,–
100 to 1000 nM,CN1CCCN(c2ccc(-c3cc4nccnc4c(NC[C@@H]4CNCCO4)n3)cn2)CC1 [Compound 260],100 to 1000 nM,–,–
100 to 1000 nM,c1cnc2c(NC[C@@H]3CNCCO3)nc(-c3cnn(C4CCOCC4)c3)cc2n1 [Compound 261],100 to 1000 nM,–,–
1 to 100 nM,O=C(C1CC1)N1CCN(c2ccc(-c3cc4nccnc4c(NC[C@@H]4CNCCO4)n3)cc2)CC1 [Compound 266],1 to 100 nM,–,–
1 to 100 nM,CC(Nc1nc(-c2ccc(N3CCOCC3)c(F)c2)cc2nccnc12)C1CNCCO1 (stereo not shown) [Compound 278],1 to 100 nM,–,–
1 to 100 nM,COCC(=O)N1CCN(c2ccc(-c3cc4nccnc4c(NC[C@@H]4CNCCO4)n3)cc2)CC1 [Compound 279],1 to 100 nM,–,–
1 to 100 nM,OCCOC1CCN(c2ccc(-c3cc4nccnc4c(NC[C@@H]4CNCCO4)n3)cc2)CC1 [Compound 286],1 to 100 nM,–,–
1 to 100 nM,FC1(CNc2nc(-c3cnn(C4CCOCC4)c3)cc3nccnc23)CCCNC1 (stereo not shown) [Compound 290],1 to 100 nM,–,–
1 to 100 nM,FC1(F)CCNCC1CNc1nc(-c2ccc(N3CCOCC3)nc2)cc2nccnc12 (stereo not shown) [Compound 292],1 to 100 nM,–,–
1 to 100 nM,Cc1cc(-c2cc3nccnc3c(NCC3CNCCC3(F)F)n2)ccc1N1CCOCC1 (stereo not shown) [Compound 295],1 to 100 nM,–,–
1 to 100 nM,CN(C)c1ccc(-c2cc3nccnc3c(NCC3CNCCC3(F)F)n2)cc1F (stereo not shown) [Compound 301],1 to 100 nM,–,–
1 to 100 nM,CNc1ccc(-c2cc3nccnc3c(NCC3CNCCC3(F)F)n2)cn1 (stereo not shown) [Compound 302],1 to 100 nM,–,–
1 to 100 nM,CC(=O)N1CCN(c2ccc(-c3cc4nccnc4c(NCC4CNCCC4(F)F)n3)cc2)CC1 (stereo not shown) [Compound 305],1 to 100 nM,–,–
1 to 100 nM,CNC(=O)COc1ccc(-c2cc3nccnc3c(NCC3CNCCC3(F)F)n2)cc1 (stereo not shown) [Compound 306],1 to 100 nM,–,–
1 to 100 nM,CC1CN(c2ccc(-c3cc4nccnc4c(NCC4CNCCC4(F)F)n3)cc2)CCO1 (stereo not shown) [Compound 309],1 to 100 nM,–,–
1 to 100 nM,OCCN1CCN(c2ccc(-c3cc4nccnc4c(NCC4CNCCC4(F)F)n3)cc2)CC1 (stereo not shown) [Compound 312],1 to 100 nM,–,–
1 to 100 nM,CN(c1ccc(-c2cc3nccnc3c(NCC3CNCCC3(F)F)n2)cc1)S(C)(=O)=O (stereo not shown) [Compound 313],1 to 100 nM,–,–
1 to 100 nM,FC1(F)CCNCC1CNc1nc(-c2cnn(C3CCOCC3)c2)cc2nccnc12 (stereo not shown) [Compound 314],1 to 100 nM,–,–
1 to 100 nM,CC(=O)N1CCN(c2ccc(-c3cc4nccnc4c(NCC4CNCCC4(F)F)n3)cn2)CC1 (stereo not shown) [Compound 316],1 to 100 nM,–,–
1 to 100 nM,CS(=O)(=O)N1CCC(n2cc(-c3cc4nccnc4c(NCC4CNCCC4(F)F)n3)cn2)CC1 (stereo not shown) [Compound 321],1 to 100 nM,–,–
1 to 100 nM,O=C(C1CC1)N1CCO[C@H](CNc2nc(-c3ccc(N4CCOCC4)cc3)cc3nccnc23)C1 [Compound 322],100 to 1000 nM,–,–
1 to 100 nM,N#CCC(=O)N1CCO[C@H](CNc2nc(-c3ccc(N4CCOCC4)cc3)cc3nccnc23)C1 [Compound 324],1 to 100 nM,–,–
1 to 100 nM,NS(=O)(=O)N1CCO[C@H](CNc2nc(-c3ccc(N4CCOCC4)cc3)cc3nccnc23)C1 [Compound 333],1 to 100 nM,–,–
1 to 100 nM,CCS(=O)(=O)N1CCO[C@H](CNc2nc(-c3ccc(N4CCOCC4)cc3)cc3nccnc23)C1 [Compound 346],1 to 100 nM,–,–
1 to 100 nM,"Fc1cc(-c2cc3nccnc3c(NC[C@@H]3CNCCC3(F)F)n2)ccc1N1CCOCC1 [Compound 368, (S)—N-((4,4-difluoropiperidin-3-yl)methyl)-7-(3-fluoro-4-morpholinophenyl) pyrido[4,3-b]pyrazin-5-amine]",1 to 100 nM,–,–
1 to 100 nM,"Cc1cc(-c2cc3nccnc3c(NC[C@@H]3CNCCC3(F)F)n2)ccc1N1CCOCC1 [Compound 370, (S)—N-((4,4-difluoropiperidin-3-yl)methyl)-7-(3-methyl-4-morpholinophenyl) pyrido[4,3-b]pyrazin-5-amine]",1 to 100 nM,–,–
1 to 100 nM,"Cc1cc(-c2cc3nccnc3c(NC[C@H]3CNCCC3(F)F)n2)ccc1N1CCOCC1 [Compound 371, (R)—N-((4,4-difluoropiperidin-3-yl)methyl)-7-(3-methyl-4-morpholinophenyl)pyrido[4,3-b]pyrazin-5-amine]",1 to 100 nM,–,–
1 to 100 nM,"CN1CCN(c2ccc(-c3cc4nccnc4c(NC[C@@H]4CNCCC4(F)F)n3)cc2)CC1 [Compound 372, (S)—N-((4,4-difluoropiperidin-3-yl)methyl)-7-(4-(4-methylpiperazin-1-yl)phenyl)pyrido[4,3-b]pyrazin-5-amine]",100 to 1000 nM,–,–

# More lines, now with the values behind:
SMILES,IC50 (Syk kinase; [2]),IC50 (RBL-2H3 cells; [1]),"IC50 (RBL-2H3 cells; RBL-2H3, read-out: IC50, IgE-induced Beta-hexosaminidase secretion)",IC50 (Syk kinase)
CN(c1ccc(-c2cc3nccnc3c(NC[C@@H]3CNCCO3)n2)cn1)C1CCOCC1 [Compound 264],1 to 100 nM,1 to 100 nM,–,–
CCC(=O)N1CCN(c2ccc(-c3cc4nccnc4c(NC[C@@H]4CNCCO4)n3)cc2)CC1 [Compound 267],1 to 100 nM,1 to 100 nM,–,–
c1cnc2c(NC[C@@H]3CNCCO3)nc(-c3ccc(N4CCCOCC4)nc3)cc2n1 [Compound 269],1 to 100 nM,1 to 100 nM,–,–
CN(C)C(=O)C1CCN(c2ccc(-c3cc4nccnc4c(NC[C@@H]4CNCCO4)n3)cc2)CC1 [Compound 270],1 to 100 nM,100 to 1000 nM,–,–
O=C(CO)N1CCN(c2ccc(-c3cc4nccnc4c(NC[C@@H]4CNCCO4)n3)cc2)CC1 [Compound 272],1 to 100 nM,1 to 100 nM,–,–
CC(C)(O)C1CCN(c2ccc(-c3cc4nccnc4c(NC[C@@H]4CNCCO4)n3)cc2)CC1 [Compound 275],1 to 100 nM,1 to 100 nM,–,–
CC(Nc1nc(-c2ccc(N3CCOCC3)cc2)cc2nccnc12)C1CNCCO1 (stereo not shown) [Compound 276],1 to 100 nM,1 to 100 nM,–,–
CS(=O)(=O)CC(=O)N1CCN(c2ccc(-c3cc4nccnc4c(NC[C@@H]4CNCCO4)n3)cc2)CC1 [Compound 280],1 to 100 nM,100 to 1000 nM,–,–
CN(c1ccc(-c2cc3nccnc3c(NC[C@@H]3CNCCO3)n2)cc1)C1CCOCC1 [Compound 285],1 to 100 nM,1 to 100 nM,–,–
CCS(=O)(=O)N1CCN(c2ccc(-c3cc4nccnc4c(NC[C@@H]4CNCCO4)n3)cc2F)CC1 [Compound 287],1 to 100 nM,1 to 100 nM,–,–
FC1(CNc2nc(-c3cnn(C4CCCC4)c3)cc3nccnc23)CCCNC1 (stereo not shown) [Compound 289],1 to 100 nM,1 to 100 nM,–,–
CNc1ccc(-c2cc3nccnc3c(NCC3CNCCC3(F)F)n2)cc1 (stereo not shown) [Compound 291],1 to 100 nM,1 to 100 nM,–,–
CN1CCN(c2ccc(-c3cc4nccnc4c(NCC4CNCCC4(F)F)n3)cc2)CC1 (stereo not shown) [Compound 293],1 to 100 nM,100 to 1000 nM,–,–
Fc1cc(-c2cc3nccnc3c(NCC3CNCCC3(F)F)n2)ccc1N1CCOCC1 (stereo not shown) [Compound 294],1 to 100 nM,1 to 100 nM,–,–
COc1ccc(-c2cc3nccnc3c(NCC3CNCCC3(F)F)n2)cc1F (stereo not shown) [Compound 296],1 to 100 nM,1 to 100 nM,–,–
CC(C)Oc1ccc(-c2cc3nccnc3c(NCC3CNCCC3(F)F)n2)cc1F (stereo not shown) [Compound 297],1 to 100 nM,1 to 100 nM,–,–

SMILES,IC50 (Syk kinase; [2]),IC50 (RBL-2H3 cells; [1]),"IC50 (RBL-2H3 cells; RBL-2H3, read-out: IC50, IgE-induced Beta-hexosaminidase secretion)",IC50 (Syk kinase)
COc1ccc(-c2cc3nccnc3c(NCC3CNCCC3(F)F)n2)cc1Cl (stereo not shown) [Compound 298],1 to 100 nM,1 to 100 nM,–,–
CNc1ccc(-c2cc3nccnc3c(NCC3CNCCC3(F)F)n2)cc1F (stereo not shown) [Compound 300],1 to 100 nM,1 to 100 nM,–,–
CN(C)Cc1ccc(-c2cc3nccnc3c(NCC3CNCCC3(F)F)n2)cc1 (stereo not shown) [Compound 303],100 to 1000 nM,100 to 1000 nM,–,–
CN(C)C(=O)c1ccc(-c2cc3nccnc3c(NCC3CNCCC3(F)F)n2)cc1 (stereo not shown) [Compound 304],100 to 1000 nM,1 to 100 nM,–,–
FC1(F)CCNCC1CNc1nc(-c2ccc(N3CCNCC3)cc2)cc2nccnc12 (stereo not shown) [Compound 307],1 to 100 nM,1 to 100 nM,–,–
CS(=O)(=O)c1ccc(-c2cc3nccnc3c(NCC3CNCCC3(F)F)n2)cc1 (stereo not shown) [Compound 310],1 to 100 nM,1 to 100 nM,–,–
CCn1cc(-c2cc3nccnc3c(NCC3CNCCC3(F)F)n2)cn1 (stereo not shown) [Compound 311],1 to 100 nM,1 to 100 nM,–,–
OCCn1cc(-c2cc3nccnc3c(NCC3CNCCC3(F)F)n2)cn1 (stereo not shown) [Compound 315],1 to 100 nM,1 to 100 nM,–,–
CC(=O)N1CCN(c2ccc(-c3cc4nccnc4c(NCC4CNCCC4(F)F)n3)cc2F)CC1 (stereo not shown) [Compound 318],1 to 100 nM,1 to 100 nM,–,–
CC(=O)N1CCC(n2cc(-c3cc4nccnc4c(NCC4CNCCC4(F)F)n3)cn2)CC1 (stereo not shown) [Compound 320],1 to 100 nM,1 to 100 nM,–,–
O=C(C(F)F)N1CCO[C@H](CNc2nc(-c3ccc(N4CCOCC4)cc3)cc3nccnc23)C1 [Compound 323],1 to 100 nM,1 to 100 nM,–,–
CS(=O)(=O)N1CCO[C@H](CNc2nc(-c3ccc(N4CCOCC4)cc3)cc3nccnc23)C1 [Compound 332],1 to 100 nM,1 to 100 nM,–,–
O=C(CF)N1CCO[C@H](CNc2nc(-c3ccc(N4CCOCC4)cc3)cc3nccnc23)C1 [Compound 340],–,–,1 to 100 nM,1 to 100 nM
NC(=O)N1CCO[C@H](CNc2nc(-c3ccc(N4CCOCC4)cc3)cc3nccnc23)C1 [Compound 347],1 to 100 nM,1 to 100 nM,–,–
CS(=O)(=O)N1CCN(c2ccc(-c3cc4nccnc4c(N4CC[C@H](CO)C4)n3)cc2)CC1 [Compound 362],1 to 100 nM,1 to 100 nM,–,–
